“Also recorded” adds a separate entry of the source.
Test system: Ezh2
Experiment: Ezh2/Ezh1 expression in cultured mouse islets (real-time RT-PCR, western blot)
Type: cell-based
Method: Mouse pancreatic islets were purified as described in Chen et al. (2009) Genes Dev. 23, 975-985 and used immediately for assays described in the text. To study Ezh2 induction in cultured islets exposed to mitogens, freshly isolated islets from 2-3-week old, and 7-12-month old C57BL/6 mice were recovered and equilibrated overnight at 37° C., 5% CO2 in RPMI-1640 medium supplemented with 0.5% fetal bovine serum (FBS), 0.2% bovine albumin (BSA) and 2% penicillin/streptomycin. Afterwards, islets were distributed into microplates or dishes, and treated with recombinant human PDGF-AA, prolactin or insulin (Sigma), with or without addition of pharmacological inhibitors, including Sunitinib (Selleck), […]0126 (Sigma), LY294002 (Sigma) or U-73122 (Sigma) at the indicated concentrations. Two days later, islets were harvested for RNA or protein extraction for real-time RTPCR or western blot analyses. To detect phosphorylation of Pdgfr-α by western blot, islets were exposed to PDGF-AA (with or without indicated pharmacological inhibitors) for 90 min before islet harvesting and protein extraction. To detect in vitro islet β-cell proliferation stimulated by PDGF-AA, a final concentration of 50 μM BrdU was introduced into each culture dish 24 h before harvest, followed by standard histological processing. Immunostaining of BrdU and insulin was performed on processed islets, and β-cell proliferation rate was determined by quantifying percentage of insulin+ cells with BrdU+. Culture experiments of human islets were performed using a similar procedure described later. Total RNA from freshly isolated or cultured islets after indicated treatments were purified using the Absolutely RNA miniprep purification kit (Stratagene) according to the manufacturer's instructions. RNA concentration was measured with a RiboGreen RNA quantification assay (Invitrogen). One-step quantitative RT-PCR was performed and analysed using an ABI Prism 7300 detection system (Applied Biosystems) with TaqMan one-step RTPCR Master Mix Reagents and appropriate amounts (10-100 ng) of islet total RNA as the template. We calculated the ratio of mRNA for the gene of interest to the amount of internal control mRNA of peptidylprolyl isomerase A (cyclophilin A, PPIA), and then normalized the ratio for each gene to its median. For western blots, total islet protein was prepared from freshly isolated or cultured islets after indicated treatments as described in Chen et al. (2009) Genes Dev. 23, 975-985. Equal amounts of protein were resolved on SDS-PAGE and transferred to polyvinylidine fluoride membranes (Amersham Pharmacia) for immunoblotting with specific antibodies, including rabbit polyclonal anti-human Ezh2 (1:1,000, Millipore), rabbit polyclonal anti-phospho-PDGFR-α ([…]) (1:1,000, Santa Cruz Biotechnologies), rabbit monoclonal anti-PDGFR-α (1:1,000, Cell Signaling), mouse monoclonal anti-β-actin (1:4,000, Sigma), rabbit monoclonal anti-Akt (1:1,500, Cell Signaling), rabbit monoclonal anti-phospho-Ark ([…]) (1:1,000, Cell Signaling), rabbit monoclonal anti-p44/42 MAPK (Erk1/2) (1:1,500, Cell Signaling), rabbit monoclonal anti-phospho-p44/42 MAPK (Erk1/2) […]) (1:1,000, Cell Signaling), rabbit monoclonal anti-PLCγ1 (1:1,000, Cell Signaling) and rabbit monoclonal anti-phospho-PLCγ1 ([…]) (1:1,000, Cell Signaling). Signal was visualized using ECL detection (Amersham Pharmacia) on Kodak film after further incubation with HRP-conjugated secondary antibodies. For phospho-PDGFR-α ([…]) and PDGFR-α detection, signal was amplified by incubating the membrane with biotinylated anti-rabbit-IgG (1:2,000), followed with an incubation with HRP-avidin (1:2,000, Vector Laboratories) and then ECL visualization.

With “PDGF-AA: recombinant human PDGF-AA, a homodimer of PDGF alpha polypeptides” the “Ezh2 mRNA and protein levels” value (3-week-old (juvenile) mouse islets, 2 days exposure) was “increased; also recorded: induces”, the Ezh1 expression (3-week-old mouse islets, 2 days exposure) was “but not Ezh1 expression” and the “Ezh2 mRNA and protein levels” value (7- or 9-month-old adult mouse islets exposed to PDGF-AA) was “not significantly increased”.
